Measurements published in BigSolDB 2.1.

CC1=NN(c2ccccc2)C(=O)C1
solubility (mole fraction)
Settings	283.15 K	288.15 K	293.15 K	298.15 K	303.15 K	313.15 K	323.15 K
in 1,4-dioxane	–	0.027	0.0341	–	0.0483	0.0669	0.1
in acetone	0.0167	–	0.0254	–	0.0371	0.0563	0.108
in acetonitrile	0.00788	–	0.0126	–	0.019	0.0284	0.0438
in dichloromethane	0.0447	0.0499	0.0582	0.0688	0.0788	–	–
in ethanol	0.0176	–	0.024	–	0.0339	0.0457	0.0597
in ethyl acetate	0.0131	–	0.0159	–	0.0198	0.0335	0.0545
in isobutanol	0.0153	–	0.0218	–	0.0288	0.0398	0.0573
in isopropanol	0.0135	–	0.0186	–	0.0268	0.0356	0.0514
in methanol	0.0194	–	0.0278	–	0.0402	0.0562	0.0833
in n-butanol	0.0194	–	0.0272	–	0.0372	0.0504	0.0703
in n-pentanol	0.0245	–	0.0285	–	0.0381	0.05	0.069
in n-propanol	0.0149	–	0.025	–	0.0344	0.0494	0.0689
in sec-butanol	0.0156	–	0.0218	–	0.0296	0.0404	0.0579
in water	0.000153	–	0.000163	–	0.000174	0.000189	0.00021
